Laboratory results taken from ChEMBL document CHEMBL1201861, “Genomics of Drug Sensitity in Cancer screening data, Wellcome Trust Sanger Institute”.

Assays:
Assay in all cases: cells
ES1 = assay type: functional, cell-based, Homo sapiens; settings: Homo sapiens, ES1
Description: SANGER: Inhibition of human ES1 cell growth in a cell viability assay.

K562 = assay type: functional, cell-based, Homo sapiens; settings: Homo sapiens, K562
Description: SANGER: Inhibition of human K-562 cell growth in a cell viability assay.

LOX IMVI = assay type: functional, cell-based, Homo sapiens; settings: Homo sapiens, LOX IMVI
Description: SANGER: Inhibition of human LOXIMVI cell growth in a cell viability assay.

Calu-6 = assay type: functional, cell-based, Homo sapiens; settings: Homo sapiens, Calu-6
Description: SANGER: Inhibition of human Calu-6 cell growth in a cell viability assay.

OMC-1 = assay type: functional, cell-based, Homo sapiens; settings: Homo sapiens, OMC-1
Description: SANGER: Inhibition of human OMC-1 cell growth in a cell viability assay.

NCI-H1395 = assay type: functional, cell-based, Homo sapiens; settings: Homo sapiens, NCI-H1395
Description: SANGER: Inhibition of human NCI-H1395 cell growth in a cell viability assay.

EW-3 = assay type: functional, cell-based, Homo sapiens; settings: Homo sapiens, EW-3
Description: SANGER: Inhibition of human EW-3 cell growth in a cell viability assay.

BT-474 = assay type: functional, cell-based, Homo sapiens; settings: Homo sapiens, BT-474
Description: SANGER: Inhibition of human BT-474 cell growth in a cell viability assay.

SW 954 = assay type: functional, cell-based, Homo sapiens; settings: Homo sapiens, SW 954
Description: SANGER: Inhibition of human SW954 cell growth in a cell viability assay.

MHH-NB-11 = assay type: functional, cell-based, Homo sapiens; settings: Homo sapiens, MHH-NB-11
Description: SANGER: Inhibition of human MHH-NB-11 cell growth in a cell viability assay.

HCE-4 = assay type: functional, cell-based; settings: Homo sapiens
Description: SANGER: Inhibition of human HCE-4 cell growth in a cell viability assay.

NB10 = assay type: functional, cell-based, Homo sapiens; settings: Homo sapiens, NB10
Description: SANGER: Inhibition of human NB10 cell growth in a cell viability assay.

MV4-11 = assay type: functional, cell-based, Homo sapiens, MV-4-11; settings: Homo sapiens, MV4-11
Description: SANGER: Inhibition of human MV-4-11 cell growth in a cell viability assay.

GI-ME-N = assay type: functional, cell-based, Homo sapiens; settings: Homo sapiens, GI-ME-N
Description: SANGER: Inhibition of human GI-ME-N cell growth in a cell viability assay.

SK-MEL-2 = assay type: functional, cell-based, Homo sapiens; settings: Homo sapiens, SK-MEL-2
Description: SANGER: Inhibition of human SK-MEL-2 cell growth in a cell viability assay.

CGTH-W-1 = assay type: functional, cell-based, Homo sapiens; settings: Homo sapiens, CGTH-W-1
Description: SANGER: Inhibition of human CGTH-W-1 cell growth in a cell viability assay.

NCI-H1092 = assay type: functional, cell-based, Homo sapiens; settings: Homo sapiens, NCI-H1092
Description: SANGER: Inhibition of human NCI-H1092 cell growth in a cell viability assay.

MPP-89 = assay type: functional, cell-based, Homo sapiens; settings: Homo sapiens, MPP-89
Description: SANGER: Inhibition of human MPP-89 cell growth in a cell viability assay.

ACN = assay type: functional, cell-based, Homo sapiens; settings: Homo sapiens, ACN
Description: SANGER: Inhibition of human ACN cell growth in a cell viability assay.

BE-13 = assay type: functional, cell-based, Homo sapiens; settings: Homo sapiens, BE-13
Description: SANGER: Inhibition of human BE-13 cell growth in a cell viability assay.

VA-ES-BJ = assay type: functional, cell-based, Homo sapiens; settings: Homo sapiens, VA-ES-BJ
Description: SANGER: Inhibition of human VA-ES-BJ cell growth in a cell viability assay.

U-266 = assay type: functional, cell-based, Homo sapiens; settings: Homo sapiens, U-266
Description: SANGER: Inhibition of human U-266 cell growth in a cell viability assay.

NCI-H446 = assay type: functional, cell-based, Homo sapiens; settings: Homo sapiens, NCI-H446
Description: SANGER: Inhibition of human NCI-H446 cell growth in a cell viability assay.

TE-8 = assay type: functional, cell-based, Homo sapiens; settings: Homo sapiens, TE-8
Description: SANGER: Inhibition of human TE-8 cell growth in a cell viability assay.

IA-LM = assay type: functional, cell-based; settings: Homo sapiens
Description: SANGER: Inhibition of human IA-LM cell growth in a cell viability assay.

GCIY = assay type: functional, cell-based, Homo sapiens; settings: Homo sapiens, GCIY
Description: SANGER: Inhibition of human GCIY cell growth in a cell viability assay.

RXF 393 = assay type: functional, cell-based, Homo sapiens; settings: Homo sapiens, RXF 393
Description: SANGER: Inhibition of human RXF393 cell growth in a cell viability assay.

A253 cell line = assay type: functional, cell-based, Homo sapiens; settings: Homo sapiens, A253
Description: SANGER: Inhibition of human A253 cell growth in a cell viability assay.

P30-OHK = assay type: functional, cell-based, Homo sapiens; settings: Homo sapiens, P30-OHK
Description: SANGER: Inhibition of human P30-OHK cell growth in a cell viability assay.

NCI-H1770 = assay type: functional, cell-based, Homo sapiens; settings: Homo sapiens, NCI-H1770
Description: SANGER: Inhibition of human NCI-H1770 cell growth in a cell viability assay.

IST-SL1 = assay type: functional, cell-based, Homo sapiens; settings: Homo sapiens, IST-SL1
Description: SANGER: Inhibition of human IST-SL1 cell growth in a cell viability assay.

HEL = assay type: functional, cell-based, Homo sapiens; settings: Homo sapiens, HEL
Description: SANGER: Inhibition of human HEL cell growth in a cell viability assay.

ALL-PO = assay type: functional, cell-based, Homo sapiens; settings: Homo sapiens, ALL-PO
Description: SANGER: Inhibition of human ALL-PO cell growth in a cell viability assay.

NB5 = assay type: functional, cell-based, Homo sapiens; settings: Homo sapiens, NB5
Description: SANGER: Inhibition of human NB5 cell growth in a cell viability assay.

NCI-H720 = assay type: functional, cell-based, Homo sapiens; settings: Homo sapiens, NCI-H720
Description: SANGER: Inhibition of human NCI-H720 cell growth in a cell viability assay.

MN-60 = assay type: functional, cell-based, Homo sapiens; settings: Homo sapiens, MN-60
Description: SANGER: Inhibition of human MN-60 cell growth in a cell viability assay.

DJM-1 = assay type: functional, cell-based, Homo sapiens; settings: Homo sapiens, DJM-1
Description: SANGER: Inhibition of human DJM-1 cell growth in a cell viability assay.

TE-12 = assay type: functional, cell-based, Homo sapiens; settings: Homo sapiens, TE-12
Description: SANGER: Inhibition of human TE-12 cell growth in a cell viability assay.

COR-L88 = assay type: functional, cell-based, Homo sapiens; settings: Homo sapiens, COR-L88
Description: SANGER: Inhibition of human COR-L88 cell growth in a cell viability assay.

EW-13 = assay type: functional, cell-based, Homo sapiens; settings: Homo sapiens, EW-13; read-out: IC50
Description: SANGER: Inhibition of human EW-13 cell growth in a cell viability assay.

NCI-H226 = assay type: functional, cell-based, Homo sapiens; settings: Homo sapiens, NCI-H226
Description: SANGER: Inhibition of human NCI-H226 cell growth in a cell viability assay.

HCC1187 = assay type: functional, cell-based, Homo sapiens; settings: Homo sapiens, HCC1187
Description: SANGER: Inhibition of human HCC1187 cell growth in a cell viability assay.

MOLT-4 = assay type: functional, cell-based, Homo sapiens; settings: Homo sapiens, MOLT-4
Description: SANGER: Inhibition of human MOLT-4 cell growth in a cell viability assay.

NCI-H1355 = assay type: functional, cell-based, Homo sapiens; settings: Homo sapiens, NCI-H1355
Description: SANGER: Inhibition of human NCI-H1355 cell growth in a cell viability assay.

SK-N-DZ = assay type: functional, cell-based, Homo sapiens; settings: Homo sapiens, SK-N-DZ; read-out: IC50
Description: SANGER: Inhibition of human SK-N-DZ cell growth in a cell viability assay.

NCI-H2126 = assay type: functional, cell-based, Homo sapiens; settings: Homo sapiens, NCI-H2126
Description: SANGER: Inhibition of human NCI-H2126 cell growth in a cell viability assay.

NCI-H1648 = assay type: functional, cell-based, Homo sapiens; settings: Homo sapiens, NCI-H1648
Description: SANGER: Inhibition of human NCI-H1648 cell growth in a cell viability assay.

KALS-1 = assay type: functional, cell-based, Homo sapiens; settings: Homo sapiens, KALS-1; read-out: IC50
Description: SANGER: Inhibition of human KALS-1 cell growth in a cell viability assay.

## NC1(c2ccc(-c3nc4ccn5c(=O)[nH]nc5c4cc3-c3ccccc3)cc2)CCC1 [MK-2206]
ES1
  IC50: 1.24 µM
K562
  IC50: > 4 µM
LOX IMVI
  IC50: > 4 µM
Calu-6
  IC50: > 4 µM
OMC-1
  IC50: 1.75 µM
NCI-H1395
  IC50: 2.18 µM
EW-3
  IC50: 3.2 µM
BT-474
  IC50: > 4 µM
SW 954
  IC50: > 4 µM
MHH-NB-11
  IC50: > 4 µM
HCE-4
  IC50: > 4 µM
NB10
  IC50: > 4 µM
MV4-11
  IC50: 2.75 µM
GI-ME-N
  IC50: > 4 µM
SK-MEL-2
  IC50: > 4 µM
CGTH-W-1
  IC50: > 4 µM
NCI-H1092
  IC50: > 4 µM
MPP-89
  IC50: > 4 µM
ACN
  IC50: > 4 µM
BE-13
  IC50: > 4 µM
VA-ES-BJ
  IC50: 0.73 µM
U-266
  IC50: > 4 µM
NCI-H446
  IC50: > 4 µM
TE-8
  IC50: > 4 µM
IA-LM
  IC50: > 4 µM
GCIY
  IC50: > 4 µM
RXF 393
  IC50: 2.6 µM
A253 cell line
  IC50: > 4 µM
P30-OHK
  IC50: 3.81 µM
NCI-H1770
  IC50: > 4 µM
IST-SL1
  IC50: > 4 µM
HEL
  IC50: > 4 µM
ALL-PO
  IC50: > 4 µM
NB5
  IC50: > 4 µM
NCI-H720
  IC50: 0.377 µM
MN-60
  IC50: 2.3 µM
DJM-1
  IC50: > 4 µM
TE-12
  IC50: > 4 µM
COR-L88
  IC50: > 4 µM
EW-13
  IC50: > 4 µM
NCI-H226
  IC50: > 4 µM
HCC1187
  IC50: > 4 µM
MOLT-4
  IC50: 0.806 µM
NCI-H1355
  IC50: > 4 µM
SK-N-DZ
  IC50: > 4 µM

## CS(=O)(=O)N1CCN(Cc2cc3nc(-c4cccc5[nH]ncc45)nc(N4CCOCC4)c3s2)CC1 [PICTILISIB]
ES1
  IC50: 2.21 µM
K562
  IC50: > 4 µM
LOX IMVI
  IC50: 2.04 µM
Calu-6
  IC50: > 4 µM
OMC-1
  IC50: 0.751 µM
NCI-H1395
  IC50: > 4 µM
BT-474
  IC50: > 4 µM
SW 954
  IC50: > 4 µM
MHH-NB-11
  IC50: > 4 µM
HCE-4
  IC50: > 4 µM
NB10
  IC50: > 4 µM
MV4-11
  IC50: 0.724 µM
GI-ME-N
  IC50: > 4 µM
SK-MEL-2
  IC50: > 4 µM
CGTH-W-1
  IC50: > 4 µM
NCI-H1092
  IC50: > 4 µM
MPP-89
  IC50: > 4 µM
ACN
  IC50: > 4 µM
BE-13
  IC50: > 4 µM
VA-ES-BJ
  IC50: 1.61 µM
U-266
  IC50: > 4 µM
NCI-H446
  IC50: > 4 µM
TE-8
  IC50: 3.48 µM
IA-LM
  IC50: > 4 µM
GCIY
  IC50: 0.434 µM
RXF 393
  IC50: > 4 µM
A253 cell line
  IC50: > 4 µM
P30-OHK
  IC50: 0.731 µM
NCI-H2126
  IC50: > 4 µM
NCI-H1770
  IC50: 0.124 µM
IST-SL1
  IC50: > 4 µM
HEL
  IC50: > 4 µM
ALL-PO
  IC50: > 4 µM
NCI-H1648
  IC50: 0.999 µM
NB5
  IC50: 0.957 µM
KALS-1
  IC50: > 4 µM
MN-60
  IC50: > 4 µM
DJM-1
  IC50: > 4 µM
TE-12
  IC50: > 4 µM
EW-13
  IC50: > 4 µM
NCI-H226
  IC50: > 4 µM
HCC1187
  IC50: > 4 µM
MOLT-4
  IC50: 0.624 µM
NCI-H1355
  IC50: > 4 µM
SK-N-DZ
  IC50: > 4 µM

## CN(C)CCOc1ccc(-c2nc(-c3ccncc3)c(-c3ccc4c(c3)CC/C4=N\O)[nH]2)cc1 [SB590885]
ES1
  IC50: > 5 µM
K562
  IC50: > 5 µM
LOX IMVI
  IC50: 3.19 µM
Calu-6
  IC50: > 5 µM
OMC-1
  IC50: > 5 µM
NCI-H1395
  IC50: > 5 µM
EW-3
  IC50: 3.56 µM
BT-474
  IC50: > 5 µM
SW 954
  IC50: > 5 µM
MHH-NB-11
  IC50: > 5 µM
HCE-4
  IC50: > 5 µM
NB10
  IC50: > 5 µM
MV4-11
  IC50: > 5 µM
GI-ME-N
  IC50: > 5 µM
SK-MEL-2
  IC50: 0.738 µM
CGTH-W-1
  IC50: > 5 µM
NCI-H1092
  IC50: > 5 µM
MPP-89
  IC50: > 5 µM
ACN
  IC50: 1.15 µM
BE-13
  IC50: > 5 µM
VA-ES-BJ
  IC50: > 5 µM
U-266
  IC50: > 5 µM
NCI-H446
  IC50: > 5 µM
TE-8
  IC50: > 5 µM
IA-LM
  IC50: > 5 µM
GCIY
  IC50: > 5 µM
RXF 393
  IC50: > 5 µM
A253 cell line
  IC50: > 5 µM
P30-OHK
  IC50: > 5 µM
NCI-H2126
  IC50: > 5 µM
NCI-H1770
  IC50: > 5 µM
IST-SL1
  IC50: > 5 µM
HEL
  IC50: > 5 µM
ALL-PO
  IC50: > 5 µM
NB5
  IC50: > 5 µM
NCI-H720
  IC50: > 5 µM
MN-60
  IC50: > 5 µM
DJM-1
  IC50: > 5 µM
TE-12
  IC50: > 5 µM
COR-L88
  IC50: > 5 µM
EW-13
  IC50: > 5 µM
NCI-H226
  IC50: > 5 µM
HCC1187
  IC50: > 5 µM
MOLT-4
  IC50: > 5 µM
NCI-H1355
  IC50: > 5 µM
SK-N-DZ
  IC50: > 5 µM
